Experimental data taken from patent US20180028477A1, “TREATMENT OF CARDIAC REMODELING AND OTHER HEART CONDITIONS” (C & C BIOPHARMA, LLC, priority 2013, published 2018).
“Also recorded” adds a separate entry of the source.

Columns and labels:
[1] = tested on: cardiac structural and hypertrophy-associated genes (Col1, Col3, ANP, BNP, SERCA2, alpha- and beta-MHC); experiment: Quantitative realtime PCR of cardiac structural and hypertrophy-associated genes in left ventricular tissue after TAC (Example 7); assay type: in vivo, mice; conditions: mRNA, 21 days after TAC
Procedure: In parallel samples from the experiment described in Example 4, the expression of a group of cardiac structural and hypertrophy-associated genes were quantified. Total RNA was extracted from left ventricular tissue using TRIzol Reagent (Invitrogen, Carlsbad, Calif.). cDNA was amplified using TaqMan Universal PCR master mix reagent (Applied Biosystems, Foster City, Calif.) under the following conditions: 2 min at 50° C., 10 min at 95° C., 40 cycles: 15 s at 95° C. and 1 min at 60° C. in an ABI 7900HT thermocycler. mRNA expression levels were normalized to those of the internal reference 18S rRNA. All samples were run in duplicates. The following primer sets were used: ANP, BNP, SERCA, MHC, and 18S. Data was analyzed using software RQ manager 1.2 from Applied Biosystems.

[2] = tested on: cardiac function after TAC in mice; experiment: Echocardiography of cardiac function 21 days post TAC (Example 8); assay type: in vivo
Procedure: (§1) Masson's Trichrome was used to visualize cardiac four-chamber anatomy. Paraffin embedded sections were used for staining (FIG. 5B). Representative wheat germ agglutinin (WGA)-stained sections of myocardium from the mice were prepared. For echocardiography (FIG. 5C), mice were placed under anesthesia with 40 mg/kg ketamine and 5 mg/kg xylocaine and secured in a supine position. Mice were evaluated using […] transducer on a Visual Sonics 770 High Resolution Imaging System. B-mode in the short and long axis view of the ventricle was used to evaluate wall motion defects of ventricle and M-mode in long axis view used for the interventricular septal thickness, posterior wall thickness and the left ventricular dimensions in systole and diastole.
Echocardiographic studies were performed on the mice to examine systolic function under the experimental conditions described in Example 4. […] As expected, TAC induced a 37% fall in ejection fraction at 21 days (sham, 82.4±1.8% vs. TAC, 51.7±5.1%) (FIG. 8A). […] The mice maintained a near-normal ejection fraction of 75.4% at the highest dose of 8MI (FIG. 8A). […] LV end diastolic diameter (LViDd) (FIG. 8D), LV end-systolic diameter (LViDs) (FIG. 8E), LV systolic volume (LV Vs) (FIG. 8F), and LV diastolic volume (LV Vd) (FIG. 8G) were increased by TAC and diminished in the presence of 8MI. […] Heart rate was unaffected in all mice (FIG. 8H).

[3] = Tolerability in mice, daily dosing for four weeks; assay type: in vivo; conditions: 100 mg/Kg daily for four weeks
[4] = tested on: cardiac hypertrophy induced by TAC in C57/BL/6 mice; experiment: TAC 21 days: cardiac mass, geometry, wall thickness, myocyte size (Example 4); assay type: in vivo; conditions: 21 days after TAC
Procedure: The effects of 8MI on hypertrophy in a model of moderate pressure overload were tested further (FIGS. 5A-5E). 8MI or its vehicle (DMSO) was administered over a range of concentrations immediately prior to and for 21 days following transverse aortic coarctation (TAC). All experiments were performed on 2-3 month old wild type C57/BL/6 mice. Cardiac hypertrophy was induced by TAC as described in Wei et. al. 2008. Pressure gradients induced by TAC were evaluated postoperatively by pulsed-wave Doppler echocardiography to confirm equivalent gradients in all animals (45±5 mmHg). 8MI was delivered via tail vein injection one day prior to surgical intervention and then daily for 21 days. Blood samples were obtained at sacrifice on day 21 after surgery, and serum was frozen at […] until analysis
as §1
Hematoxylin and Eosin (HE) and FITC conjugated WGA (from Invitrogen) were used to evaluate myocardial cell size (FIGS. 5D and 5E). The sizes of cells from at least 4 myocardial sections from 3 mice per condition were measured (FIG. 5E). WGA samples were counterstained with DAPI and images were merged from the DAPI and FITC channels.

[5] = tested on: a variety of cells; experiment: Toxicity in the culture of a variety of cells; assay type: cell-based
[6] = tested on: GATA4; experiment: GATA4 acetylation in myocardial lysates, immunoprecipitation/Western (Example 9); assay type: in vivo; conditions: TAC-operated mice, same conditions
Procedure: (§2) Acetyl-MEF2 and acetyl-GATA4 were determined as described in Example 9 in myocardial lysates of TAC- or sham-operated mice treated with the indicated doses of 8MI, or its vehicle (0), as indicated. […] MEF2 acetylation is increased by TAC and reduced by 8MI. Myocardial lysates were immunoprecipitated with either anti-pan MEF2 or GATA4 antibodies, and probed with antibodies against MEF2, GATA4 or acetyl-lysine (control). The quantified data shown in FIG. 9 is from 3 mice per group and normalized to total acetyl-lysine (western blots are not shown).
(§3) MEF2 acetylation was determined in myocardial tissue from sham- and TAC-operated mice in the presence of vehicle or 8MI, under the experimental conditions described in Example 4. Protein samples were collected in RIPA (Sigma). […] of protein samples were incubated with 5 μg of acetyl lysine or GATA4 antibodies (Upstate, Charlottesville, Va.) or MEF2 antibody (Santa Cruz Biotechnology, Santa Cruz, Calif.) (5 μg). The immune-complexes were captured using TrueBlot sepharose beads and subjected to Western analysis. The immune complexes were resolved on SDS-PAGE and transferred to nitrocellulose membranes. Membranes were blocked with 5% milk in 0.5% TBS-T for 1 hour at room temperature followed by incubation in primary antibody at appropriate dilutions overnight. […]

[7] = tested on: myocyte apoptosis during TAC; experiment: Myocyte apoptosis in myocardial tissue after TAC, TUNEL assay (Example 10); assay type: in vivo, mice
Excerpt: In parallel samples from the experiment described in Example 4, apoptosis was quantitated in myocardial tissue from sham- and TAC-operated mice in the presence of vehicle or 8MI. Apoptosis was detected following recommended protocol for the commercially available terminal deoxynucleotidyl transferase-mediated dUTP nick-end labeling (TUNEL) assay kit (Cardiotacs, Trevigne, Gaithersburg, Md.).

[8] = tested on: MEF2; experiment: MEF2 acetylation in myocardial lysates, immunoprecipitation/Western (Example 9); assay type: in vivo, mice
Procedure: as §2, §3

[9] = 21 days post TAC, depressed by TAC
[10] = 21 days post TAC, increased by TAC

## Nc1ccccc1NC(=O)CCCCCC(=O)Nc1cccc(Br)c1 [8MI]
[1]
  stress-induced expression of B-type natriuretic peptide (BNP): markedly attenuated
  stress-induced expression of Collagen Type 1 (Col1): markedly attenuated
  stress-induced expression of Collagen Type 3 (Col3): markedly attenuated
  stress-induced expression of SERCA2: markedly attenuated
  stress-induced expression of alpha-myosin heavy chain: markedly attenuated
  stress-induced expression of atrial natriuretic peptide (ANP): markedly attenuated
  stress-induced expression of beta-myosin heavy chain: markedly attenuated
[2]; 21 days post TAC, 5, 20 and 40 mg/kg, dose-dependent
  systolic function / cardiac function under sustained pressure overload: preserved systolic function; also recorded: preservation of cardiac function
[2]; 21 days post TAC, highest dose of 8MI (sham 82.4±1.8%, TAC 51.7±5.1%)
  ejection fraction: 75.4%
[2]; [9]
  fractional shortening (FS): similarly restored
  stroke volume: similarly restored
[2]; [10]
  LV end diastolic diameter (LViDd): diminished
  LV end-systolic diameter (LViDs): diminished
  LV systolic volume (LV Vs): diminished
[2]; all mice, 21 days
  heart rate: unaffected
[2]; sham-operated mice treated with 8MI
  cardiac function in sham-operated mice: normal cardiac function
[3]
  signs of kidney or liver damage or other adverse effects: no sign of kidney or liver damage or other adverse effects; also recorded: without any signs of kidney or liver disease or other adverse effects
[4]
  effect on heart weight in comparison to previously published results for TSA: significantly superior effect
  reduction of myocyte cross sectional area in comparison to previously published results for TSA: significantly superior effect
[4]; 40 mg/kg
  HW/TL at the highest dose: normal levels
[4]; WGA-stained sections
  TAC-induced increase of myocyte cross-sectional area / myocyte size: effectively eliminated this 2.2-fold increase; also recorded: normalization of myocyte size
[4]; dose-dependent
  remodeling of the myocardium (four-chamber sections): prevented remodeling of the myocardium; also recorded: normalization of cardiac geometry
[4]; highest dose of 8MI (vehicle 35.9%±1.0%)
  increase of echocardiographic wall thickness: 6.9%±1.4%
[4]; indicated doses
  echocardiographic posterior wall thickness: normalization of echocardiographic posterior wall thickness
[4]; indicated doses up to 40 mg/kg, tail vein daily
  TAC-induced increase of heart weight (HW/TL): blunted the increase of heart weight in a dose-dependent manner; also recorded: normalization of cardiac mass
[5]
  concentration up to which no apparent toxicity was seen: up to 20 μM
[6]
  total and Ac-GATA4 levels: no significant change
[7]; 40 mg/kg
  apoptosis in TAC-operated mice at the highest dose: reduced to approximately the same level of apoptosis observed for the sham-operated mice
[7]; dose range
  apoptosis in TAC-operated mice: reduced in TAC-operated mice by 8MI in a dose-dependent manner; also recorded: prevented myocyte apoptosis during TAC in a dose dependent manner
[8]; TAC-operated mice, increasing doses of 8MI
  TAC-induced acetyl-MEF2 content: reduced the acetyl-MEF2 content to level at or below those of the sham-operated mice; also recorded: reduced
[8]; sham-operated mice, maximum dose (40 mg/kg) versus vehicle (DMSO), 40 mg/kg
  total acetyl-MEF2 content, basal: not different; also recorded: does not reduce acetyl-MEF2 levels
